Results published in patent EP0953357A1, “NEPHROTROPIC DRUGS” (Drug Delivery System Institute, Ltd., priority 1997, dated 1998).
“And” between values parts separate entries of the source, which are not always exact repeats. Identical values can stand only once. Counter-ions that a name gives are not always drawn.

Key:
kidney membrane fraction [1] = assay: Inhibition of binding of ^3H-Glc-O-C8-AVP to kidney membrane fraction (Test 4); settings: ^3H-Glc-O-C8-AVP 20 pmol/ml, kidney membrane fraction 1 mg/ml, on ice 10 min
Method: (§1) A membrane fraction was prepared by the method of Stassen F.L. et al. (J. Pharm. Exp. Thera., 223, 50-54, 1982). An experiment on binding was carried out as follows. The membrane fraction prepared above, together with the ^3H-labeled derivative, was incubated in physiological phosphate buffer on ice, followed by ultracentrifugation. The bound product obtained as the sediment by the ultracentrifugation was counted.
The inhibitory activity of segmental structures of Glc-O-C8-AVP and the like against binding ^3H-Glc-O-C8-AVP (20 pmol/ml) to the kidney membrane fraction (1 mg/ml) (incubation on ice for 10 min) was studied.

[2] = Renal selectivity (organ distribution) of thioglucoside-modified products (Test 6); format: in vivo; settings: rats; for Conc. in kidney / Renal clearance: ^3H-labeled product, same manner as Test 1 (i.v. 1 nmol/kg, 5 min); for renal selectivity: comparison between AVP derivatives
Method: The organ clearance was determined by the following equation.

kidney membrane fraction [3] = assay: Effect of sugars on inhibition of specific binding between ^3H-Glc-S-C8 and kidney membrane fraction (Test 8); settings: ^3H-Glc-S-C8 20 pmol/ml, kidney membrane fraction 1 mg protein/ml
Method: In order to estimate structural requirement for recognition in the kidney, an experiment was carried out on the effect of various sugars and sugar derivatives on the inhibition of specific -binding between ^3H-Glc-S-C8 (20 pmol/ml) and the kidney membrane fraction (1 mg protein/ml).

kidney membrane fraction [4] = assay: Effect of glycolipid derivatives on inhibition of specific binding between ^3H-Glc-S-C8 and kidney membrane fraction (Test 9); settings: specific binding of ^3H-Glc-S-C8 to kidney membrane fraction, same manner as Test 4
Method: as §1, with “counted. […]” for “counted.”
Commercially available or synthesized glycolipid derivatives were subjected to an binding inhibition experiment in the same manner as in Test 4.

[5] = Pharmacokinetic test of monkey (Glc-S-C8-CONH-C2-NBD) (Test 10 (2)); format: in vivo; settings: monkeys, i.v. 10 nmol/kg, 5 min; n = 2, average
Method: In order to investigate the difference in activity of the compounds according to the present invention between animal species, the pharmacokinetic test using monkeys was carried out as follows. […] The monkeys of group A were injected with Glc-S-C8-CONH-C2-NBD, while, for comparison, the monkeys of group B were injected with 4-(2-hydroxyethyl)amino-7-nitrobenz-2-oxa-1,3-diazole (synthesis intermediate prepared in Example 44; hereinafter referred to as "HO-C2-NBD").
Five min after the administration, the monkeys were bled to death; and, immediately after that, each organ was extracted. According to the conventional method, the organs were homogenized and deprotenized. Thereafter, the samples were subjected to separation by reversed phase liquid chromatography. Glc-S-C8-CONH-C2-NBD and HO-C2-NBD were detected and quantitatively determined by fluorescence detector.

Which IC50 (kidney membrane fraction [1]) does the source give for “arginine vasopressin [AVP, reference compound]” here?
Its IC50 is 150 µM.

What about the Conc. in kidney [2] of the same compound?
Its Conc. in kidney is 5.3±0.7 % of dose/g.

What about the Renal clearance [2] of the same compound?
Its Renal clearance is 0.49 ± 0.04 mL/min/g.

For `OC[C@H]1NC[C@H](O)[C@@H](O)[C@@H]1O` [1-Deoxynojirimycin], which “Inhibition (%)” value (kidney membrane fraction [3]; sample 20 mM) is on record?
Its value is 98.9%.

What about the “Inhibition (%)” value (kidney membrane fraction [3]; sample 100 mM) of the same compound?
The value was 99.6%.

Which IC50 (kidney membrane fraction [1]) does the source give for `CO[C@@H]1O[C@H](CO)[C@@H](O)[C@H](O)[C@H]1O` [Glc-O-CH3, Methyl β-D-glucopyranoside] here?
Its IC50 is > 2000 µM.

Which Conc. in kidney [2] does the source give for `N=C(N)NCCC[C@H](NC(=O)[C@@H]1CCCN1C(=O)[C@@H]1CSSC[C@H](NC(=O)CCCCCCCCCCCS[C@@H]2O[C@H](CO)[C@@H](O)[C@H](O)[C@H]2O)C(=O)N[C@@H](Cc2ccc(O)cc2)C(=O)N[C@@H](Cc2ccccc2)C(=O)N[C@@H](CCC(N)=O)C(=O)N[C@@H](CC(N)=O)C(=O)N1)C(=O)NCC(N)=O` [Glc-S-C11-AVP] here?
The Conc. in kidney was 40.2±1.5 % of dose/g.

And the Renal clearance [2]?
Its Renal clearance is 4.47 ± 0.33 mL/min/g.

And the renal selectivity [2]?
Its renal selectivity is “higher renal selectivity than Glc-S-C8-AVP”.

What does the source list for `N=C(N)NCCC[C@H](NC(=O)[C@@H]1CCCN1C(=O)[C@@H]1CSSC[C@H](NC(=O)CCCCCCCCS[C@@H]2O[C@H](CO)[C@@H](O)[C@H](O)[C@H]2O)C(=O)N[C@@H](Cc2ccc(O)cc2)C(=O)N[C@@H](Cc2ccccc2)C(=O)N[C@@H](CCC(N)=O)C(=O)N[C@@H](CC(N)=O)C(=O)N1)C(=O)NCC(N)=O` [Glc-S-C8-AVP]?
Conc. in kidney [2]: 29.2±0.9 % of dose/g; Renal clearance [2]: 3.42 mL/min/g and 3.42 ± 0.05 mL/min/g; renal selectivity [2]: higher renal selectivity than Glc-O-C8-AVP

With `CCCCCCCCO[C@@H]1O[C@H](CO)[C@@H](O)[C@H](O)[C@H]1O` [Glc-O-C8, Octyl β-D-glucopyranoside] as the compound, how does the IC50 (kidney membrane fraction [1]) read?
Its IC50 is 2.9 µM.

And the IC50 (kidney membrane fraction [4])?
The IC50 was 4.6 µM.

For `CC(C)(C)CC(C)(C)S[C@@H]1O[C@H](CO)[C@@H](O)[C@H](O)[C@H]1O` [Glc-S-C(CH3)2-CH2-C(CH3)3, t-Octyl 1-thio-β-D-glucopyranoside], which IC50 (kidney membrane fraction [4]) is on record?
Its IC50 is 1 µM.

For `O=C(CCCCCCCCS[C@@H]1O[C@H](CO)[C@@H](O)[C@H](O)[C@H]1O)NCCNc1ccc([N+](=O)[O-])c2nonc12` [Glc-S-C8-CONH-C2-NBD], which “concentration of administered compound: Adrenal” value [5] is on record?
The value was 1.87 pmol/mol or g tissue.

What about the “concentration of administered compound: Blood” value [5] of the same compound?
Its value is 10.72 pmol/mol or g tissue.

And the “concentration of administered compound: Heart” value [5]?
Its value is 3.23 pmol/mol or g tissue.

And the “concentration of administered compound: Kidney” value [5]?
The value was 280.32 pmol/mol or g tissue.

What about the “concentration of administered compound: Liver” value [5] of the same compound?
The value was 13.85 pmol/mol or g tissue.

What about the “concentration of administered compound: Lung” value [5] of the same compound?
Its value is 6.90 pmol/mol or g tissue.

What about the “concentration of administered compound: Plasma” value [5] of the same compound?
The value was 16.42 pmol/mol or g tissue.

And the “concentration of administered compound: Spleen” value [5]?
The value was 0.55 pmol/mol or g tissue.

With `COC(=O)CCCCCCCCS[C@@H]1N[C@H](CO)[C@@H](O)[C@H](O)[C@H]1O` [5N-Glc-S-C8-COOMe, 8-methoxycarbonyloctyl 5-amino-5-deoxy-1-thio-β-D-glucopyranoside hydrochloride] as the compound, how does the IC50 (kidney membrane fraction [4]) read?
Its IC50 is 4.7 µM.

Which “Inhibition (%)” value (kidney membrane fraction [3]; sample 20 mM) does the source give for `O=C[C@H](O)[C@@H](O)[C@@H](O)[C@H](O)CO` [Galactose] here?
Its value is 2.5%.

And the “Inhibition (%)” value (kidney membrane fraction [3]; sample 100 mM)?
Its value is 18.9%.

Which “concentration of administered compound: Adrenal” value [5] does the source give for `O=[N+]([O-])c1ccc(NCCO)c2nonc12` [HO-C2-NBD, 4-(2-hydroxyethyl)amino-7-nitrobenz-2-oxa-1,3-diazole, reference compound] here?
The value was 2.05 pmol/mol or g tissue.

And the “concentration of administered compound: Blood” value [5]?
Its value is 7.53 pmol/mol or g tissue.

And the “concentration of administered compound: Heart” value [5]?
The value was 10.92 pmol/mol or g tissue.

What about the “concentration of administered compound: Kidney” value [5] of the same compound?
Its value is 2.33 pmol/mol or g tissue.

And the “concentration of administered compound: Lung” value [5]?
The value was 17.33 pmol/mol or g tissue.

What about the “concentration of administered compound: Plasma” value [5] of the same compound?
The value was 7.51 pmol/mol or g tissue.

And the “concentration of administered compound: Spleen” value [5]?
The value was 2.35 pmol/mol or g tissue.

With `O=C[C@H](F)[C@@H](O)[C@H](O)[C@H](O)CO` [2-Fluoro-2-deoxyglucose] as the compound, how does the “Inhibition (%)” value (kidney membrane fraction [3]; sample 20 mM) read?
The value was 37.8%.

And the “Inhibition (%)” value (kidney membrane fraction [3]; sample 100 mM)?
The value was 67.9%.

Which IC50 (kidney membrane fraction [4]) does the source give for `CCCCCCCCS[C@@H]1O[C@H](CO)[C@@H](O)[C@H](O)[C@@H]1O` [Man-S-C8, Octyl 1-thio-β-D-mannopyranoside] here?
The IC50 was 0.2 µM.

Which IC50 (kidney membrane fraction [4]) does the source give for `CCCCCCCCS[C@@H]1O[C@H](CO)[C@@H](O)[C@@H](O)[C@H]1O` [All-S-C8, Octyl 1-thio-β-D-allopyranoside] here?
Its IC50 is 1.1 µM.

Which IC50 (kidney membrane fraction [4]) does the source give for `CCCCCCCCS[C@H]1C[C@@H](O)[C@H](O)[C@@H](CO)O1` [Example 2d-Glc-S-C8, Octyl 2-deoxy-1-thio-β-D-glucopyranoside] here?
The IC50 was 0.071 µM.

Which results are given for `CCCCCCCCS[C@@H]1O[C@H](CO)[C@@H](O)[C@H](O)[C@H]1O` [Glc-S-C8, Octyl 1-thio-β-D-glucopyranoside]?
IC50 (kidney membrane fraction [1]): 0.065 µM; IC50 (kidney membrane fraction [4]): 0.078 µM

Which IC50 (kidney membrane fraction [1]) does the source give for `OC[C@H]1OC(O)[C@H](O)[C@@H](O)[C@@H]1O` (some centres unmarked) [Glc, glucopyranose] here?
The IC50 was > 2000 µM.

What about the “Inhibition (%)” value (kidney membrane fraction [3]; sample 20 mM) of the same compound?
The value was 16.7%.

What about the “Inhibition (%)” value (kidney membrane fraction [3]; sample 100 mM) of the same compound?
The value was 38.4%.

With `O=CC[C@@H](O)[C@H](O)[C@H](O)CO` [2-Deoxyglucose] as the compound, how does the “Inhibition (%)” value (kidney membrane fraction [3]; sample 20 mM) read?
Its value is 29.2%.

What about the “Inhibition (%)” value (kidney membrane fraction [3]; sample 100 mM) of the same compound?
The value was 58.3%.

With `CCCCCCO[C@@H]1O[C@H](CO)[C@@H](O)[C@H](O)[C@H]1O` [Glc-O-C6, Hexyl β-D-glucopyranoside] as the compound, how does the IC50 (kidney membrane fraction [1]) read?
The IC50 was 5.9 µM.

Which IC50 (kidney membrane fraction [4]) does the source give for `CCCCCCCCS[C@@H]1OC[C@@H](O)[C@H](O)[C@H]1O` [Xyl-S-C8, Octyl 1-thio-β-D-xylopyranoside] here?
Its IC50 is 1.5 µM.

Which IC50 (kidney membrane fraction [4]) does the source give for `COC(=O)CCCCCCCCS[C@@H]1O[C@H](CO)[C@@H](O)[C@H](O)[C@H]1O` [Glc-S-C8-COOMe, 8-methoxycarbonyloctyll-thio-β-D-glucopyranoside] here?
The IC50 was 0.59 µM.

For `O=C[C@H](O)[C@@H](F)[C@H](O)[C@H](O)CO` [3-Fluoro-3-deoxyglucose], which “Inhibition (%)” value (kidney membrane fraction [3]; sample 20 mM) is on record?
Its value is 9.7%.

What about the “Inhibition (%)” value (kidney membrane fraction [3]; sample 100 mM) of the same compound?
Its value is 18.7%.

Which IC50 (kidney membrane fraction [1]) does the source give for `CCCCCCCCS[C@@H]1O[C@H](CO)[C@H](O)[C@H](O)[C@H]1O` [Gal-S-C8, Octyl 1-thio-β-D-galactopyranoside] here?
Its IC50 is 120 µM.

And the IC50 (kidney membrane fraction [4])?
The IC50 was 37 µM.

Which IC50 (kidney membrane fraction [4]) does the source give for `COC(=O)CCCCCCCCO[C@@H]1O[C@H](CO)[C@@H](O)[C@H](O)[C@H]1O` [Glc-O-C8-COOMe, 8-methoxycarbonyloctylβ-D-glucopyranoside] here?
The IC50 was 33 µM.

For `COC(=O)CCCCCCCN[C@@H]1O[C@H](CO)[C@@H](O)[C@H](O)[C@H]1O` [Glc-NH-C7-COOMe, N-(7-methoxycarbonyl)heptyl-β-D-glucopyranosylamine], which IC50 (kidney membrane fraction [4]) is on record?
Its IC50 is 0.11 µM.

Which IC50 (kidney membrane fraction [4]) does the source give for `CCCCCCCCS[C@@H]1O[C@H](CO)C[C@H](O)[C@H]1O` [Example 4d-Glc-S-C8, n-octyl 4-deoxy-1-thio-β-D-glucopyranoside] here?
The IC50 was 55 µM.

Which “Inhibition (%)” value (kidney membrane fraction [3]; sample 20 mM) does the source give for `O=C[C@H](O)[C@@H](O)[C@H](O)[C@H](O)CF` [6-Fluoro-6-deoxyglucose] here?
Its value is 17.8%.

What about the “Inhibition (%)” value (kidney membrane fraction [3]; sample 100 mM) of the same compound?
The value was 32.5%.

Which results are given for `O=C[C@H](O)[C@@H](O)[C@H](F)[C@H](O)CO` [4-Fluoro-4-deoxyglucose]?
Inhibition (%) (kidney membrane fraction [3]; sample 20 mM): 70.2%; Inhibition (%) (kidney membrane fraction [3]; sample 100 mM): 83.9%

For `O=[N+]([O-])c1ccc(S[C@@H]2O[C@H](CO)[C@@H](O)[C@H](O)[C@H]2O)cc1` [Glc-S-pNP, p-Nitrophenyl 1-thio-β-D-glucopyranoside], which IC50 (kidney membrane fraction [4]) is on record?
Its IC50 is 0.23 µM.

With `CCCCC(CCCC)S[C@@H]1O[C@H](CO)[C@@H](O)[C@H](O)[C@H]1O` [Glc-S-CH(C4H9)2, 5-(1-Thio-β-D-glucopyranosyl)nonan] as the compound, how does the IC50 (kidney membrane fraction [4]) read?
Its IC50 is 1.5 µM.

For `COC(=O)CCCCCCCCS[C@@H]1S[C@H](CO)[C@@H](O)[C@H](O)[C@H]1O` [5S-Glc-S-C8-COOMe, 8-methoxycarbonyloctyl 5-deoxy-1,5-dithio-β-D-glucopyranoside], which IC50 (kidney membrane fraction [4]) is on record?
The IC50 was 14 µM.
